This is an account of results in patent US9072698B2, “Method for screening anti-cancer compounds inhibiting function of TM4SF5 and anti-cancer composition containing chalcone compounds” (Seoul National University Industry Foundation, priority 2006, dated 2015).

Assay [1] has as its system SNU449Tp cells. Briefly: Transwell chamber cell migration (FIG. 65). The conditions noted are these: 20 μM, 18 hrs. Type of assay: cell-based, human. How it is done:
Cell migration was examined using Boyden Transwell chamber 24 well plates (Costar, Cambridge, Mass.). SNU449 Cp and SNU449Tp cells were placed in a chamber on a polycarbonate filter (8 μm porosity) at a density of 5×10^4 cells/well, and cultured in serum-free RPMI (Roswell Park Memorial Institute) media in an incubator at 37° C. under 5% CO2 for 24 hrs. Then, cells on the upper surface of the membrane of the insert chamber were completely removed by wiping with a cotton swab. Cells on the lower side of the membrane were fixed with 70% methanol for about 7 min.
SNU449 Cp cells and SNU449Tp cells were plated onto 6-well plates and cultured for 24 hrs. Cells were then treated with 20 μM of TSAHC to culture for 18 hrs. Cells were transferred into insert wells of the Transwell chamber. After 18 hrs, migrated cells were fixed, stained, and observed under an optical microscope. Cells were counted, and the results were expressed as a graph (FIG. 65).

Another assay deals with MMP-2 and MMP-9. Briefly: Gelatin zymography of culture supernatants (FIG. 68). The conditions noted are these: 20 μM, 24 hrs. Type of assay: cell-based, human. How it is done:
The substrate degradation activity of secreted MMPs was investigated using gelatin zymography. Cell lines, indicated in FIG. 62, were cultured in 60-mm culture dishes. After 18 hrs, the medium was exchanged with serum-free medium, and cells were cultured for a further 24 hrs. Culture supernatants were collected to obtain secreted MMPs, and were then concentrated. Samples were electrophoresed on the running SDS-PAGE gel containing gelatin as a substrate for MMPs under reducing conditions. The gel was washed in 1% Triton X-100 to remove SDS, thus renaturing the enzymes. The gel was then incubated in enzyme reaction buffer (10 mM CaCl2, 0.15 M NaCl, 50 mM Tris-HCl, pH 7.5) at 37° C. for 18 hrs. The gel was stained with 0.5% Coomassie Brilliant Blue R250 for 3 hrs, and destained until clear bands appeared in 10% acetic acid and 30% methanol.
In addition, Cp cells and Tp cells were treated with 20 μM of TSAHC for 24 hrs. The medium was exchanged with serum-free medium, and cells were cultured for a further 18 hrs. Culture supernatants were collected, concentrated, and analyzed using zymography, as described above.

The next assay deals with T1, TM4SF5 (Homo sapiens, UniProt O14894).
T1 construct: expressed in transfected cells; host or cells: SNU449 hepatocarcinoma cells stably expressing TM4SF5 (the embodiment)
T1 sequence (O14894 1-197): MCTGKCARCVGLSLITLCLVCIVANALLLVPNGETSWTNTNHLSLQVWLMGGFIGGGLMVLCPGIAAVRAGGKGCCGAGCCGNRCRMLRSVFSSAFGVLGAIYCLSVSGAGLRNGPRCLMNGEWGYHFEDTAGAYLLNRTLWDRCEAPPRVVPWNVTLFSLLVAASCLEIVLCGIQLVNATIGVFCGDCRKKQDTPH
Description: Western blotting of lysates treated with PNGase F and Endo H (FIG. 50). Type of assay: cell-based. In general terms: Immunoblotting shows a protein as a band on a membrane.

Assay [2] deals with PC-3 (prostate adenocarcinoma). Briefly: In vitro cytotoxicity, sulforhodamine B (SRB) method, PC-3. Type of assay: cell-based. Conditions: Homo sapiens; PC-3, SRB method; read-out: cytotoxicity (ED50) PC-3. The method, boiled down: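 Cells grown in RPMI 1640 with 10% FCS at 37 °C, 5% CO2 were exposed to compounds at 30, 10, 3, 1 and 0.3 μg/ml final, with DMSO below 0.5%. Cytotoxicity was read by the standard NCI sulforhodamine B protein-staining method.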
(In general: The SRB assay estimates cell density from bound dye.)

Assay [3] relates to SNU449Tp cells. Briefly: Invasion into Matrigel, Transwell chamber (FIG. 67). Type of assay: cell-based, human. The conditions noted are these: cultured for 24 hrs. The procedure:
The invasiveness of SNU449Tp cells was also analyzed using Boyden Transwell chamber 24 well plates, as mentioned in Example 7-(1). Matrigel was added to the insert of the plates, and was allowed to solidify at 37° C. Cells were cultured as described above. After 24 hrs, cells on the upper surface of the membrane of the insert chamber were completely removed by wiping with a cotton swab. As a result, after […], cells that had invaded the lower side of the membrane were stained.
According to the same method described above, cells were seeded in the Transwell chamber, coated with a thick layer of Matrigel, and cultured for 24 hrs. Cells that invaded the Matrigel were counted, and the results are shown as a graph.

For assay [4], the system named is p27^kip1, pS^10p27^kip1, pY^577FAK and α-SMA. Description: Western blotting for TM4SF5-mediated protein expression (FIG. 46). In kind it is cell-based, human. The procedure: Cell lysates, obtained under various experimental conditions, were prepared using RIPA buffer after cells under various conditions were washed with PBS. In special cases, employed cells were transfected with given expression vectors or infected with an adenovirus expressing an shRNA to TM4SF5 or a siRNA to p27^kip1. In addition, cells treated with 10 μM of cycloheximide for a given period of time were used. For such cell lysates, protein was quantified, and the same amounts of protein were used. Western blotting was performed using antibodies to phospho-Y^577FAK, phospho-Y^416Src, c-Src, RhoA, p120^ctn, β-catenin, pS^10p27^kip1, FAK, E-cadherin, ZO1, Rac1, p190RhoGAP, p27^kip1, GRAF, hKIS, desmoplakin, α-tubulin, α-catenin, and α-smooth muscle actin (α-SMA).

The test system of the next assay is RhoA. Briefly: In vitro RhoA activity assay (FIG. 48). In kind it is cell-based, human. Conditions: TM4SF5-expressing cells. The procedure: In order to investigate signaling pathways involved in the aforementioned morphological change, TM4SF5-expressing cell lines (SNU449Tp, T3, T7 and T16), established in Example 1, were assessed for expression levels of FAK phosphorylated at Tyr577 (pY^577FAK) and c-Src phosphorylated at Tyr 416 (pY^416cSrc), Rac1 activity and RhoA activity. Whole cell lysates were prepared and subjected to Western blot analysis, which was performed with each antibody against proteins indicated in FIGS. 3 and 5. The activity of RhoA and Rac1 was monitored by pull-down of RhoA and Rac1 from the cell lysates in vitro.

Structures are written as SMILES. In brackets after ≈: the same amount, converted by molar mass.

As to `Cc1ccc(S(=O)(=O)Nc2ccc(C(=O)/C=C/c3ccc(O)cc3)cc2)cc1` [Compound 1, 4′-(p-toluenesulfonylamino)-4-hydroxychalcone], in the assay with SNU449Tp cells [1], the TM4SF5-mediated cell migration entry was “inhibit TM4SF5-mediated cell migration”. Besides, the “TM4SF5-mediated activity of MMPs” value with MMP-2 and MMP-9 is “inhibit the TM4SF5-mediated activity of MMPs”. Besides, on TM4SF5, the “sensitivity of N-linked glycosylated region of TM4SF5 to PNGase F” value is on record as “increase the sensitivity of an N-linked glycosylated region of TM4SF5 to PNGase F”. The IC50 in assay [2] came out at 37 µg/mL (≈ 94 µM). Besides, the “invasion into Matrigel” value with SNU449Tp cells [3] is reported as “effectively inhibit invasion into Matrigel”. Besides, the “expression levels of p27^kip1, pS^10p27^kip1, pY^577FAK and α-SMA” value in assay [4] was “effectively reduce TM4SF5-mediated high expression levels of p27^kip1, pS^10p27^kip1, pY^577FAK and α-SMA”. For the same compound, the RhoA activity entry with RhoA is listed as “restored the reduced RhoA activity in TM4SF5-expressing cells”.
